These results are taken from article PMC11864037 (RSC Advances, 2025).

The IC50 is the midpoint of a concentration-inhibition curve. Usually CC50 stands for the concentration at which the toxic effect on the cells reaches its halfway point. By EC50 is commonly meant the concentration needed to bring the measured effect to its halfway point.

In one data set the target is SARS-CoV-2 M^pro (Severe acute respiratory syndrome coronavirus 2, UniProt P0DTD1). Nature of the data set: biochemical. To be noted: for inhibition against M^pro: concentration not given.
Data set [1] can be described thus: MTT cytotoxic assay in Vero-E6 cells. In kind it is cell-based. To be noted: African green monkey. On the technique in general: Tetrazolium assays rely on reduction of a dye to a coloured formazan, in cell work by metabolically active cells.
Another data set concerns SARS-CoV-2. To be noted: cited from earlier work.
In the next data set the test system is M^pro. To be noted: repurposed drug; cited from earlier work.

Like-named read-outs stand apart in the source and are kept apart here.

For `O=C(O)CC[C@H](NC(=O)C1=C(C(F)(F)F)NC(=S)NC1c1ccc(C(F)(F)F)cc1)C(=O)O` (stereo partly drawn) [8a], the IC50 at SARS-CoV-2 M^pro amounted to 23.2 µM.

In turn, `CS(=O)(=O)n1cc2c(n1)CN(CC(=O)SC1=NC(c3ccc(C(F)(F)F)cc3)C(C(=O)N[C@@H](Cc3ccc(O)cc3)C(=O)O)=C(C(F)(F)F)N1)C2` (stereo partly drawn) [12i, (2-((2-(2-(Methylsulfonyl)-2,6-dihydropyrrolo[3,4-c]pyrazol-5(4H)-yl)acetyl)thio)-6-(trifluoromethyl)-4-(4-(trifluoromethyl)phenyl)-1,4-dihydropyrimidine-5-carbonyl)-L-tyrosine] yielded a CC50 at 48 h in data set [1] of 243 µM.

On SARS-CoV-2 M^pro, `NC1CCCN(CC(=O)SC2=NC(c3ccc(C(F)(F)F)cc3)C(C(=O)N[C@@H](Cc3ccc(O)cc3)C(=O)O)=C(C(F)(F)F)N2)C1` (stereo partly drawn) [12g, (2-((2-(3-Aminopiperidin-1-yl)acetyl)thio)-6-(trifluoromethyl)-4-(4-(trifluoromethyl)-phenyl)-1,4-dihydropyrimidine-5-carbonyl)-L-tyrosine] came in with an IC50 of 0.21 ± 0.01 µM.

For the molecule `COC(=O)c1ccc(C2N=C(SC(=O)CN3CCn4c(nnc4C(F)(F)F)C3)NC(C(F)(F)F)=C2C(=O)N[C@@H](Cc2c[nH]cn2)C(=O)O)cc1` (stereo partly drawn) [12l, (4-(4-(Methoxycarbonyl)phenyl)-6-(trifluoromethyl)-2-((2-(3-(trifluoromethyl)-5,6-dihydro-[1,2,4]triazolo[4,3-a]pyrazin-7(8H)-yl)acetyl)thio)-1,4-dihydropyrimidine-5-carbonyl)-L-histidine], on SARS-CoV-2 M^pro, the IC50 came out at 0.054 µM and the “inhibition against M^pro” value is listed as “over 50%”. In data set [1], this molecule returned a CC50 at 48 h of 198 µM.

For the molecule `O=C(N[C@@H](Cc1c[nH]cn1)C(=O)O)C1=C(C(F)(F)F)NC(=S)NC1c1ccc(C(F)(F)F)cc1` (stereo partly drawn) [8d], it took 30.7 µM to reach half-maximal inhibition against SARS-CoV-2 M^pro (IC50).

For the molecule `O=C(O)CC[C@H](NC(=O)C1=C(C(F)(F)F)NC(=S)NC1c1ccc([N+](=O)[O-])cc1)C(=O)O` (stereo partly drawn) [8f], on SARS-CoV-2 M^pro, the IC50 came out at 36.8 µM.

For `CS(=O)(=O)n1cc2c(n1)CN(CC(=O)SC1=NC(c3ccc([N+](=O)[O-])cc3)C(C(=O)N[C@@H](CCC(=O)O)C(=O)O)=C(C(F)(F)F)N1)C2` (stereo partly drawn) [12j, (2-((2-(2-(Methylsulfonyl)-2,6-dihydropyrrolo[3,4-c]pyrazol-5(4H)-yl)acetyl)thio)-4-(4-nitrophenyl)-6-(trifluoromethyl)-1,4-dihydropyrimidine-5-carbonyl)-L-glutamic acid], on SARS-CoV-2 M^pro, half-maximal inhibition (IC50) required 0.063 µM and the “inhibition against M^pro” value is “over 50%”. The midpoint of cytotoxicity in data set [1], the CC50 at 48 h, lay at 211 µM.

For `O=C(Nc1ccc(S(=O)(=O)O)cc1)C1=C(C(F)(F)F)NC(=S)NC1c1ccc(C(F)(F)F)cc1` (stereo not drawn) [8c], the IC50 at SARS-CoV-2 M^pro came out at 28.2 µM.

At SARS-CoV-2 M^pro, `O=C(CN1CCn2c(nnc2C(F)(F)F)C1)SC1=NC(c2ccc(C(F)(F)F)cc2)C(C(=O)N[C@@H](Cc2ccc(O)cc2)C(=O)O)=C(C(F)(F)F)N1` (stereo partly drawn) [12e, (6-(Trifluoromethyl)-2-((2-(3-(trifluoromethyl)-5,6-dihydro-[1,2,4]triazolo[4,3-a]-pyrazin-7(8H)-yl)acetyl)thio)-4-(4-(trifluoromethyl)phenyl)-1,4-dihydropyrimidine-5-carbonyl)-L-tyrosine] registered an IC50 of 0.73 ± 0.04 µM.

Regarding `CS(=O)(=O)n1cc2c(n1)CN(CC(=O)SC1=NC(c3ccc(C(F)(F)F)cc3)C(C(=O)N[C@@H](Cc3c[nH]cn3)C(=O)O)=C(C(F)(F)F)N1)C2` (stereo partly drawn) [12h, (2-((2-(2-(Methylsulfonyl)-2,6-dihydropyrrolo[3,4-c]pyrazol-5(4H)-yl)acetyl)thio)-6-(trifluoromethyl)-4-(4-(trifluoromethyl)phenyl)-1,4-dihydropyrimidine-5-carbonyl)histidine], the IC50 against SARS-CoV-2 M^pro was 16.3 µM.

On to `O=C(O)C[C@H](NC(=O)C1=C(C(F)(F)F)NC(=S)NC1c1ccc(C(F)(F)F)cc1)C(=O)O` (stereo partly drawn) [8b], for which the IC50 at SARS-CoV-2 M^pro came out at 44.7 ± 1.36 µM.

Consider `O=C(N[C@@H](Cc1ccc(O)cc1)C(=O)O)C1=C(C(F)(F)F)NC(=S)NC1c1ccc(C(F)(F)F)cc1` (stereo partly drawn) [8e], for which the IC50 against SARS-CoV-2 M^pro was 25.3 µM.

Consider `CC(C)(C)[C@H](NC(=O)C(F)(F)F)C(=O)N1C[C@H]2[C@@H]([C@H]1C(=O)N[C@H](C#N)C[C@@H]1CCNC1=O)C2(C)C` [nirmatrelvir], for which the EC50 with SARS-CoV-2 (read-out: antiviral activity EC50) is 0.074 µM.

In turn, `O=C(CN1CCn2c(nnc2C(F)(F)F)C1)SC1=NC(c2ccc(C(F)(F)F)cc2)C(C(=O)N[C@@H](Cc2c[nH]cn2)C(=O)O)=C(C(F)(F)F)N1` (stereo partly drawn) [12d, (6-(Trifluoromethyl)-2-((2-(3-(trifluoromethyl)-5,6-dihydro-[1,2,4]triazolo[4,3-a]pyrazin-7(8H)-yl)acetyl)thio)-4-(4-(trifluoromethyl)phenyl)-1,4-dihydropyrimidine-5-carbonyl)histidine] came in with an IC50 against SARS-CoV-2 M^pro of 14.4 µM.

`COC(=O)c1ccc(C2NC(=S)NC(C(F)(F)F)=C2C(=O)N[C@@H](Cc2c[nH]cn2)C(=O)O)cc1` (stereo partly drawn) [8h] gave an IC50 against SARS-CoV-2 M^pro of 34.9 µM.

On SARS-CoV-2 M^pro, `CS(=O)(=O)n1cc2c(n1)CN(CC(=O)SC1=NC(c3ccc([N+](=O)[O-])cc3)C(C(=O)Nc3ccc(S(=O)(=O)O)cc3)=C(C(F)(F)F)N1)C2` (stereo not drawn) [12k, 4-(2-((2-(2-(Methylsulfonyl)-2,6-dihydropyrrolo[3,4-c]pyrazol-5(4H)-yl)acetyl)thio)-4-(4-nitrophenyl)-6-(trifluoromethyl)-1,4-dihydropyrimidine-5-carboxamido)benzene-sulfonic acid] displayed an IC50 of 0.146 µM. Further, it took 239 µM to reach half-maximal cytotoxicity in data set [1] (CC50 at 48 h).

`O=C(O)CC[C@H](NC(=O)C1=C(C(F)(F)F)NC(SC(=O)CN2CCn3c(nnc3C(F)(F)F)C2)=NC1c1ccc(C(F)(F)F)cc1)C(=O)O` (stereo partly drawn) [12a, (6-(Trifluoromethyl)-2-((2-(3-(trifluoromethyl)-5,6-dihydro-[1,2,4]triazolo[4,3-a]-pyrazin-7(8H)-yl)acetyl)thio)-4-(4 (trifluoromethyl)phenyl)-1,4-dihydropyrimidine-5-carbonyl)-L-glutamic acid] gave an IC50 at SARS-CoV-2 M^pro of 0.15 µM.

For the molecule `Cn1cnc(Cn2c(=O)[nH]/c(=N\c3cc4cn(C)nc4cc3Cl)n(Cc3cc(F)c(F)cc3F)c2=O)n1` [ensitrelvir], the EC50 with SARS-CoV-2 was 0.37 µM.

Turning to `CC(C)(C)NC(=O)N[C@H](C(=O)N1C[C@H]2[C@@H]([C@H]1C(=O)NC(CC1CCC1)C(=O)C(N)=O)C2(C)C)C(C)(C)C` (stereo partly drawn) [boceprevir], the IC50 with M^pro was 4.13 µM.
